The record followed here is patent publication US9115085B2, “Crystalline forms of a prolyl hydroxylase inhibitor” (FibroGen, Inc., priority 2012, dated 2015).

The test system of one series is Hep3B cells. The series can be described thus: Cell-based EPO assay. Set-up: species or system human. Particulars: 30 μM compound in DMSO compared to DMSO only control, 72 hours. The procedure: Hep3B cells (human hepatocellular carcinoma cells from ATCC, cat #HB-8064) were plated at 25,000 cells per well 96 well plates. The next day, the cells were washed once with DMEM (Cellgro, cat #10-013-CM)+0.5% fetal bovine serum (Cellgro, cat #35-010-CV) and incubated with various concentrations of compound or vehicle control (0.15% DMSO) in DMEM+0.5% fetal bovine serum for 72 hours. Cell free culture supernatants were generated by transfer to a conical bottom 96 well plate and centrifugation for 5 minutes at 2000 rpm. The supernatant was quantitated for EPO using a human EPO ELISA kit (R&D Systems, cat #DEP 00). The EPO values for the compounds reported herein (e.g., Table 22) are the measured value for cells plus compound minus the value for the vehicle control for the same cell preparation. The EPO values for the vehicle control for the cell preparations varied from 0-12.5 mIU/mL.

The nature of the next series: Moisture sorption. The series is classed as physicochemical. The note with it: from 5% to 95% relative humidity; lost on desorption.
Series [1] is described as follows: Solid form stability on storage (XRPD). Type of series: physicochemical. Particulars: for XRPD pattern / form after storage: 40° C./75% RH. An excerpt: X-Ray Powder Diffraction patterns were collected on a Bruker AXS C2 GADDS diffractometer using Cu Kα radiation (40 kV, 40 mA), automated XYZ stage, laser video microscope for auto-sample positioning and a HiStar 2-dimensional area detector. X-ray optics consists of a single Gobel multilayer mirror coupled with a pinhole collimator of 0.3 mm. […] Alternatively, X-Ray Powder Diffraction patterns were collected on a Bruker D8 diffractometer using Cu Kα radiation (40 kV, 40 mA), θ-2θ goniometer, and divergence of V4 and receiving slits, a Ge monochromator and a Lynxeye detector. […] The software used for data collection was Diffrac Plus XRD Commander v2.5.0 and the data were analyzed and presented using Diffrac Plus EVA v11.0.0.2 or v13.0.0.2. Samples were run under ambient conditions as flat plate specimens using powder as received. The sample was gently packed into a cavity cut into polished, zero-background (510) silicon wafer. The sample was rotated in its own plane during analysis. The details of the data collection are: • Angular range: 2 to 42°2θ • Step size: 0.05°2θ • Collection time: 0.5 s/step • Analysis duration: 7 minutes Differential Scanning Calorimetry (DSC)

For `Cc1nc(C(=O)NCC(=O)O)c(O)c2ccc(Oc3ccccc3)cc12` [Compound A Form A, [(4-hydroxy-1-methyl-7-phenoxy-isoquinoline-3-carbonyl)-amino]-acetic acid], in the series with Hep3B cells, the “Cell EPO” value is 182 mIU/mL. Besides, the “moisture sorption weight gain” value in “Moisture sorption” is “approximately 0.2%”. Further, the “relative stability of crystalline forms” value in series [1] (among Form B, C, and D of Compound A) is “most stable crystalline form”.
For the compound `Cc1nc(C(=O)NCC(=O)O)c(O)c2ccc(Oc3ccccc3)cc12` [Compound A Form D, [(4-hydroxy-1-methyl-7-phenoxy-isoquinoline-3-carbonyl)-amino]-acetic acid DMSO:water solvate], the form conversion entry in series [1] (left drying at ambient temperature) was “converted to Form A”.
As for `Cc1nc(C(=O)NCC(=O)O)c(O)c2ccc(Oc3ccccc3)cc12.NCCO` [Compound A ethanolamine salt, [(4-hydroxy-1-methyl-7-phenoxy-isoquinoline-3-carbonyl)-amino]-acetic acid ethanolamine salt], the “XRPD pattern / form after storage” value in series [1] is recorded as “Pattern 3”.
Still for that read-out and setting: next, “[(4-hydroxy-1-methyl-7-phenoxy-isoquinoline-3-carbonyl)-amino]-acetic acid diethanolamine salt [Compound A diethanolamine salt]”: “Pattern 2”.
Take “[(4-hydroxy-1-methyl-7-phenoxy-isoquinoline-3-carbonyl)-amino]-acetic acid hemihydrate [Compound A Form B]”: the “form conversion on storage” value in series [1] (ambient temperature, full month (32 days), high resolution XRPD) is reported as “almost completely reverted to anhydrous Form A”. Besides, the “crystalline pattern change on storage” value in series [1] (stored at 25° C./96% RH for twelve days) is “reverting to Form A”.
